This assay in a line: Blocker Index (BI), expert graders smelling isovaleric acid swatches treated with test material. Conditions: test material 50 ppm on swatch with 20 μL 0.08% isovaleric acid, scale 0-3. An excerpt:
Blocker materials suitable for use in consumer products of the present invention are chosen for their ability to decrease malodor, while not interfering with perception of a fragrance. Material selection is done by assigning two indices to a test sample material from two reference scales in order to rank odor strengths. The two reference scales are the Fragrance Fidelity Index (FFI) scale and the Blocker Index (BI) scale. The FFI ranks the ability of the test sample material to impart a perceivable odor which could cause interference when combined with another fragrance and the BI ranks the ability of the test sample material to reduce malodor perception. The two methods for assigning the indices to a test sample on the FFI and the BI reference scales are given below.
The first step in the method for assigning a BI to a test sample material on the BI reference scale is to create the BI reference swatches. […] Fabric swatches for this test are white knit polycotton (4 inch×4 inch) swatches from EMC ordered as PC 50/50. The supplier is instructed to strip the swatches first, stripping involves washing twice with a fragrance-free detergent and rinsing three times.
The BI scale contains one clean swatch with no malodor applied. […] These solutions are pipetted to the middle of the swatches. […]

For the compound `C=C/C(C)=C\CC=C(C)C` [Material 524], the BI was 2.8.

Values taken from US10792384B2, “Rolled fibrous structures comprising encapsulated malodor reduction compositions” (The Procter & Gamble Company, priority 2017, dated 2020).
